From patent US20260284074A1, “ENT1 Inhibitors in Combination with Checkpoint Inhibitors” (iTeos Belgium SA, priority 2023, published 2026) come the findings set out here.

Entries after “also recorded” stand apart in the source; their conditions may differ.

Experiment [1] concerns human T cells. In words: [3H]adenosine uptake in activated human T cells. The class given is cell-based. Particulars: Homo sapiens, T-cell; T cells activated 2 days in presence of compound, washed, [3H]adenosine uptake; read-out: IC50, inhibition of uptake of adenosine into human T cells. The source says: Applicant observed that activated human T cells took up [3H]adenosine, and this uptake was reduced in the presence of the selective ENT1 inhibitor dilazep, confirming that ENT1 is the dominant transporter involved in adenosine uptake in T cells.
Human T cells were activated for 2 days in the presence of Compound 1 or dilazep. The cells were then washed and used in a [^3H]adenosine uptake experiment. […] (See FIG. 27A.)

Experiment [2] deals with human T cells. Put plainly: T cell proliferation by CFSE dilution in the presence of ATP. The class given is cell-based. To be noted: Homo sapiens, read-out: IC50, restoration of T cell proliferation. The protocol: Human T cells were activated in the presence of 100 μM ATP and dilazep or Compound 1 and proliferation was monitored by CarboxyFluoroscein Succinimidyl Ester (CFSE) dilution. […] (See FIG. 27B.)

Experiment [3] has as its target T1, ENT1 (Homo sapiens, UniProt Q99808).
T1 sequence (Q99808 1-456): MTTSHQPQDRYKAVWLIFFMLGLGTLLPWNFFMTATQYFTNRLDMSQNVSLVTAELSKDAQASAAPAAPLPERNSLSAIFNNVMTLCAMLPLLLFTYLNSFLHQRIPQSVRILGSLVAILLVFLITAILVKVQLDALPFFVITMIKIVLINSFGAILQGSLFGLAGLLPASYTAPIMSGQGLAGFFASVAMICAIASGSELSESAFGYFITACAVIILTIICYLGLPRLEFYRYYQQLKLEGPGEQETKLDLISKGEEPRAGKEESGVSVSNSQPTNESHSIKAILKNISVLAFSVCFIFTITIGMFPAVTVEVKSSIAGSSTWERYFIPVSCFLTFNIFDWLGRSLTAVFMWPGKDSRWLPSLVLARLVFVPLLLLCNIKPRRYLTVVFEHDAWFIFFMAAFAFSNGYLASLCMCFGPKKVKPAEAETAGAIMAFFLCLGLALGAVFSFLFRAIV
Put plainly: ENT1 transport inhibition assay (uridine transport). It is filed as cell-based.

Experiment [4] concerns tumor infiltrating T cells. In words: T cell proliferation in dissociated human tumor cell suspension cultures with ATP. It is filed as cell-based. To be noted: 500 μM ATP; CD3/CD28 microbeads and IL-2; Compound 1 300 nM; anti-PD-1 10 μg/mL; 3 days. The protocol: (§1) Human tumors were dissociated, and cells were CFSE-labelled and stimulated with CD3/CD28 microbeads and IL-2 in the presence of 500 μM of ATP as a source of adenosine.
(§2) Human tumor pieces were rinsed with cold PBS and cut into 1 to 2 mm fragments with a scalpel blade and transferred into GentleMACS C tubes. Dissociation of the tissue was completed with the Tumor Dissociation kit (Miltenyi Biotec) according to the manufacturer's instruction. Briefly, 5 mL of dissociation solution—containing 200 μL of enzyme H, 20 μL of enzyme R and 25 μL of enzyme A and RPMI until 5 mL—was added per gram of tumor. The tube was placed in the gentleMACS dissociator and the 1st program was run. An incubation step of 30 minutes at 37° C. was applied with rotation (MACSmix tube rotator). After this incubation, a quick centrifugation (30×rcf, 1 min) was performed, the supernatant containing dissociated cells was collected in a new tube containing FBS (30% of the total volume with supernatant) and placed at 4° C. […] A short centrifugation was performed, the cells in supernatant were pooled with the 1st collection and filtered through a 100 μm cell strainer which was washed with 10 mL RPMI 10% FBS 2% P/S. After centrifugation at 350×rcf for 10 min, cells were resuspended in 20 mL RPMI 10% FBS 2% P/S and counted with a haemocytometer. […]

Experiment [5] has as its system TNF, IFNγ, and granzyme B. In words: Cytokine levels in supernatants of dissociated human tumor cell cultures with ATP. It is filed as cell-based. To be noted: 500 μM ATP; Compound 1 300 nM; culture supernatants. The protocol: as §1, §2
Experiment [6] has as its system ENT1. Put plainly: ENT1 expression (FIG. 28C). The class given is cell-based, human. The protocol:
FIGS. 28A, 28B, and 28C show the results of an experiment whereby human tumors were dissociated, and cells were CFSE-labelled and stimulated with CD3/CD28 microbeads and IL-2 in the presence of 500 μM of ATP as a source of adenosine. FIGS. 28A and 28B show data of Compound 1-mediated rescue of CD8+ T cell proliferation and TNF, IFNγ, and granzyme B, respectively, from dissociated tumor cell suspension cultures. Symbols represent each donor, bars are group mean±s.d. One-way RM ANOVA with Tukey's multiple comparisons test.

As to `COc1cc(C(=O)O[C@@H]2CCCOc3cc(cc(OC)c3OC)C(=O)NCCCN3CCCN(CC2)CC3)cc(OC)c1OC` [Compound 1, (12R)-7^4,7^5-dimethoxy-6-oxo-8-oxa-5-aza-1(1,4)-diazepana-7(1,3)-benzenacyclotetradecaphane-12-yl 3,4,5-trimethoxybenzoate], the IC50 in experiment [1] is 0.2 nM; in experiment [2], 0.06 nM; in experiment [3] (read-out: IC50, ENT1 inhibition (ENT1-mediated uridine transport)), 2.2 nM. In addition, the “Potency of inhibition of ENT1-mediated uridine transport (in words)” value in experiment [3] is “nanomolar potency”. The “Rescue of T cell proliferation suppressed by ATP” value in experiment [4] is on record as “restored; also recorded: partially reversed”. The “Production of TNF, IFNγ, and granzyme B suppressed by ATP” value in experiment [5] is reported as “restored, to varying extents”. Also, the ENT1 expression result in experiment [6] is on record as “suppresses”.
